According to patent US7109223B2, “Oxazolidin-2-one and thiazolidin-2-one derivatives for use as EP4 receptor agonists in the treatment of glaucoma” (Merck & Co. Inc., priority 2002, dated 2006):
Entries after “also recorded” stand apart in the source; their conditions may differ.

Key:
[1] = test system: ROS 17/2.8 rat osteosarcoma cells; test: Effect on intracellular cAMP in ROS 17/2.8 cells; type: cell-based
Method: (§1) RCT-1 and RCT-3 are clonal cell lines immortalized by SV-40 large T antigen from cells released from fetal rat calvair by a cmbination collagenase/hyaluronidase digestion. RCT-1 cells, derived from cells released during the first 10 minutes of digestion (fraction I), are cultured in RPMI 1640 medium (BRL) with 10% fetal bovine serum and 0.4 mg/ml G418 (BRL). These cells differentiate and express osteoblastic features upon retinoic acid treatment. RCT-3 cells, immortalized from osteoblast-enriched fraction III cells, are cultured in F-12 medium (BRL) with 5% Fetal bovine serum and 0.4 mg/ml G418. TRAB-11 cells are also immortalized by SV40 large T antigen from adult rat tibia and are cultured in RPMI 1640 medium with 10% FBS and 0.4 mg/ml G418. ROS 17/2.8 rat osteosarcoma cells are cultured in F-12 containing 5% FBS. Osteoblast-enriched (fraction III) primary fetal rat calvaria cells are obtained by collagenase/hyaluronidase digestion of calvariae of 19 day-old rat fetuses. See Rodan et al., Growth stimulation of rat calvaria osteoblastic cells by acidic FGF, Endocrinology, 121, 1919–1923 (1987), which is incorporated by reference herein in its entirety. Cells are released during 30–50 minutes digestion (fraction III) and are cultured in F-12 medium containing 5% FBS. […]

RP-1 periosteal cells = test: EP4 and EP2 mRNA levels in RP-1 periosteal cells (Northern blot); type: cell-based, rat; conditions: RP-1 cells
Method: RP-1 periosteal cells are spontaneously immortalized from primary cultures of periosteal cells from tibae of 4-week old Sprague-Dawley rats and are cultured in DMEM (BRL, Gaithersburg, Md.) with 10% fetal bovine serum (JRH Biosciences, Lenexa, Kans.).
(§2) Total RNA is extracted from the tibial metaphysis or diaphysis and calvaria using a guanidinium isothiocyanate-phenol-chloroform method after pulverizing frozen bone samples by a tissue homogenizer. See P. Chomczynski et al., Single-step method of RNA isolation by acid guanidium thiocyanate-phenol-chloroform extraction, Analyt Biochem, 162, 156–159 (1987), which is incorporated by reference herein in its entirety. RNA samples ([…]) are separated on 0.9% agarose/formaldehyde gels and transferred onto nylon membranes (Boehringer Mannheim, Germany). Membranes are prehybridized in Hybrisol I (Oncor, Gaithersburg, Md.) and 0.5 mg/ml sonicated salmon sperm DNA (Boehringer) at 42° C. for 3 hours and are hybridized at 42° C. with rat EP2 and mouse EP4 cDNA probes labeled with [^32P]-dCTP (Amersham, Buckinghamshire, UK) by random priming using the rediprime kit (Amersham). After hybridization, membranes are washed 4 times in 2× SSC+0.1% SDS at room temperature for a total of 1 hour and once with 0.2× SSC+0.1% SDS at 55° C. for 1 hour and then exposed to Kodak XAR 2 film at −70° C. using intensifying screens. After developing the films, bound probes are removed twice with 0.1% SDS at 80° C. and membranes are hybridized with a human GAPDH (Glyceraldehyde 3-Phosphate Dehydrogenase) cDNA probe (purchased from Clontech, Palo Alto, Calif.) for loading control.
PGE2 enhances its own production via upregulation of cyclooxygenase 2 expression in osteoblasts and in bone tissue thus autoamplifying its own effects. PGE2 also increases the levels of EP4 mRNA. RP-1 cells are immortalized from a primary culture of adult rat tibia periosteum is examined. These cells express osteoblast phenotypic markers upon confluence and form mineralized bone matrix when implanted in nude mice. […]

RCT-3 cells [2] = test: Effect on intracellular cAMP in RCT-3 cells; type: cell-based, rat
Method: as §1

RCT-3 cells [3] = test: EP4 mRNA levels in RCT-3 cells (Northern blot); type: cell-based, rat
Method: as §1

bone marrow cells = test: Localization of EP4 mRNA expression in bone tissue (in situ hybridization); type: in vivo, rat; conditions: rats, single anabolic dose
Method: (§3) For mRNA localization experiments, 5-week old Sprague-Dawley rats (Charles River) are euthanized by CO2, their tibiae and calvariae are excised, cleaned of soft tissues and frozen immediately in liquid nitrogen. For EP4 regulation experiments, 6-week old rats are given a single injection of either vehicle (7% ethanol in sterile water) or an anabolic dose of PGE2 (Cayman Chemical, Ann Arbor, Mich.), 3–6 mg/kg in the same vehicle) intraperitoneally. Animals are euthanized at several time points post-injection and their tibiae and calvariae, as well as samples from lung and kidney tissues are frozen in liquid nitrogen.
Frozen tibiae are sectioned coronally at […] thickness and sections are mounted on charged slides (Probe On Plus, Fisher Scientific, Springfield, N.J.) and are kept at −70° C. until hybridization. cRNA probes are labeled with ^35S-UTPgS (ICN, Costa Mesa, Calif.) using a Riboprobe II kit (Promega Madison, Wis.). Hybridization is performed overnight at 50° C. […]
In situ hybridization is used in order to localize cells expressing EP4 in bone. In control experiment (vehicle-injected) rats, low expression of EP4 is detected in bone marrow cells. […]

TRAB-11 cells = test: Effect on intracellular cAMP in TRAB-11 cells; type: cell-based, rat
Method: as §1

bone tissue = test: EP4 and EP2 mRNA levels in vivo in bone tissue (Northern blot); parameters: species or system rat
Method: as §3
as §2, with “control. […]” for “control.”

SMILES: CCCCC[C@H](O)/C=C/[C@H]1[C@H](O)CC(=O)[C@@H]1C/C=C\CCCC(=O)O [PGE2]
- effect on intracellular cAMP [1]: no effect
- EP2 mRNA (RP-1 periosteal cells): not expressed; also recorded: does not induce
- EP4 mRNA levels (RP-1 periosteal cells; 10^−6M): rapidly increases
- time of peak EP4 mRNA levels after treatment (RP-1 periosteal cells; 10^−6M): 2 h
- effect on intracellular cAMP (RCT-3 cells [2]): markedly induced
- EP4 mRNA levels (RCT-3 cells [3]): no effect
- expression of EP4 in bone marrow cells (bone marrow cells): increased
- effect on intracellular cAMP (TRAB-11 cells): markedly induced
- time of peak EP4 mRNA levels in the tibial diaphysis after injection (bone tissue; five-week-old male rats, 3–6 mg/Kg): 2 h
- EP4 mRNA levels in the tibial diaphysis (bone tissue; five-week-old male rats, 3–6 mg/Kg, systemic administration): rapidly increased
- EP2 mRNA in bone tissue (bone tissue; rats): does not induce
